In PubChem BioAssay (NCI):
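Cells were grown in 96-well plates and exposed to each compound for 48 hours at five concentrations; endpoints were interpolated linearly between bracketing concentrations, or set to the highest concentration if not reached. Here, GI50 denotes the concentration required for 50% inhibition of growth. TGI: concentration producing complete growth inhibition.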

What was measured:
Assay in all cases: NCI tumour cell line growth inhibition, 48 h
[1] = test system: MOLT-4 leukemia
[2] = test system: NCI-H522 lung
[3] = test system: SW-620 colon
[4] = test system: SK-MEL-5 melanoma
[5] = test system: CCRF-CEM leukemia
[6] = test system: NCI/ADR-RES ovarian
[7] = test system: NCI-H460 lung
[8] = test system: UACC-257 melanoma
[9] = test system: HCT-116 colon
[10] = test system: HOP-92 NSCLC
[11] = test system: HCC-2998 colon
[12] = test system: DU-145 prostate
[13] = test system: OVCAR-5 ovarian
[14] = test system: NCI-H23 lung
[15] = test system: BT-549 breast
[16] = test system: IGROV1 ovarian
[17] = test system: PC-3 prostate
[18] = test system: SR leukemia
[19] = test system: T-47D breast
[20] = test system: COLO 205 colon
[21] = test system: SK-OV-3 ovarian
[22] = test system: OVCAR-4 ovarian
[23] = test system: SF-268 CNS
[24] = test system: U251 CNS
[25] = test system: SNB-75 CNS
[26] = test system: NCI-H226 lung
[27] = test system: HS 578T breast
[28] = test system: LOX IMVI melanoma
[29] = test system: ACHN renal
[30] = test system: HOP-62 NSCLC
[31] = test system: UACC-62 melanoma
[32] = test system: RPMI-8226 leukemia
[33] = test system: HT29 colon
[34] = test system: CAKI-1 renal
[35] = test system: SK-MEL-2 melanoma
[36] = test system: SNB-19 CNS
[37] = test system: MALME-3M melanoma
[38] = test system: SN12C renal
[39] = test system: KM12 colon
[40] = test system: RXF 393 renal
[41] = test system: UO-31 renal
[42] = test system: HCT-15 colon
[43] = test system: 786-0 renal
[44] = test system: MCF7 breast
[45] = test system: MDA-MB-231 breast
[46] = test system: TK-10 renal
[47] = test system: HL-60(TB) leukemia
[48] = test system: SF-295 CNS
[49] = test system: A498 renal
[50] = test system: SF-539 CNS
[51] = test system: MDA-MB-435
[52] = test system: A549 NSCLC
[53] = test system: M14 melanoma
[54] = test system: K-562 leukemia
[55] = test system: OVCAR-3 ovarian
[56] = test system: SK-MEL-28 melanoma
[57] = test system: OVCAR-8 ovarian
[58] = test system: EKVX NSCLC

## CCO/C=N/C1=C(C#N)C(c2ccc(OC)cc2)c2sc3c(C)cccc3c2O1 (stereo unspecified)
[1]
  GI50: 0.54 µM
  TGI: > 24.3 µM
[2]
  GI50: 0.426 µM
  TGI: 10 µM
[3]
  GI50: 0.527 µM
  TGI: > 100 µM
[4]
  GI50: 0.5 µM
  TGI: > 46.5 µM
[5]
  GI50: 0.459 µM
  TGI: > 100 µM
[6]
  GI50: 0.444 µM
  TGI: > 100 µM
[7]
  GI50: 0.407 µM
  TGI: > 100 µM
[8]
  GI50: > 43.5 µM
  TGI: > 100 µM
[9]
  GI50: 0.402 µM
  TGI: > 38.4 µM
[10]
  GI50: 0.851 µM
  TGI: > 55.2 µM
[11]
  GI50: 1.07 µM
  TGI: 7.78 µM
[12]
  GI50: 0.571 µM
  TGI: > 100 µM
[13]
  GI50: 3.16 µM
  TGI: > 100 µM
[14]
  GI50: 0.545 µM
  TGI: > 100 µM
[15]
  GI50: 0.65 µM
  TGI: > 58.5 µM
[16]
  GI50: 0.515 µM
  TGI: > 100 µM
[17]
  GI50: 0.494 µM
  TGI: > 100 µM
[18]
  GI50: 0.376 µM
  TGI: 7.84 µM
[19]
  GI50: 0.561 µM
  TGI: > 100 µM
[20]
  GI50: 0.818 µM
  TGI: 6.69 µM
[21]
  GI50: 0.794 µM
  TGI: > 100 µM
[22]
  GI50: 1.48 µM
  TGI: > 100 µM
[23]
  GI50: 0.766 µM
  TGI: > 100 µM
[24]
  GI50: 0.51 µM
  TGI: > 39.5 µM
[25]
  GI50: 0.203 µM
  TGI: 0.774 µM
[26]
  GI50: 0.457 µM
  TGI: > 30.7 µM
[27]
  GI50: 0.35 µM
  TGI: > 47.8 µM
[28]
  GI50: 0.665 µM
  TGI: > 40.3 µM
[29]
  GI50: 0.699 µM
  TGI: > 100 µM
[30]
  GI50: 0.552 µM
  TGI: > 60.3 µM
[31]
  GI50: 0.514 µM
  TGI: > 100 µM
[32]
  GI50: 0.417 µM
  TGI: 15.1 µM
[33]
  GI50: 1.14 µM
  TGI: 35.5 µM
[34]
  GI50: 0.321 µM
  TGI: > 100 µM
[35]
  GI50: 1.14 µM
  TGI: > 100 µM
[36]
  GI50: 0.518 µM
  TGI: > 100 µM
[37]
  GI50: 0.603 µM
  TGI: > 100 µM
[38]
  GI50: 0.831 µM
  TGI: > 52.3 µM
[39]
  GI50: 0.452 µM
  TGI: > 100 µM
[40]
  GI50: 0.233 µM
  TGI: 0.707 µM
[41]
  GI50: 0.562 µM
  TGI: > 100 µM
[42]
  GI50: 0.447 µM
  TGI: > 38.1 µM
[43]
  GI50: 0.469 µM
  TGI: > 62.4 µM
[44]
  GI50: 0.347 µM
  TGI: > 81.2 µM
[45]
  GI50: 1.57 µM
  TGI: > 45 µM
[46]
  GI50: 22.7 µM
  TGI: > 100 µM
[47]
  GI50: 0.29 µM
  TGI: 1.73 µM
[48]
  GI50: 0.362 µM
  TGI: > 37.8 µM
[49]
  GI50: 0.291 µM
  TGI: 1.1 µM
[50]
  GI50: 0.316 µM
  TGI: 1.91 µM
[51]
  GI50: 0.243 µM
  TGI: 0.677 µM
[52]
  GI50: 0.898 µM
  TGI: > 100 µM
[53]
  GI50: 0.421 µM
  TGI: > 45 µM
[54]
  GI50: 0.333 µM
  TGI: > 100 µM
[55]
  GI50: 0.394 µM
  TGI: > 100 µM
[56]
  GI50: 3.42 µM
  TGI: > 100 µM
[57]
  GI50: 0.716 µM
  TGI: > 100 µM
[58]
  GI50: 0.932 µM
  TGI: > 100 µM

## COc1cc(/C=N/NC(=O)c2cn(C3CC3)c3c(OC)c(N4CC5CCCNC5C4)c(F)cc3c2=O)ccc1O (stereo unspecified)
[1]
  GI50: 2.3 µM
  TGI: 5.33 µM
[2]
  GI50: 1.79 µM
  TGI: 3.4 µM
[3]
  GI50: 1.73 µM
  TGI: 3.27 µM
[4]
  GI50: 17.6 µM
  TGI: 41.3 µM
[6]
  GI50: 58.8 µM
  TGI: > 100 µM
[7]
  GI50: 1.87 µM
  TGI: 3.5 µM
[10]
  GI50: 1.66 µM
  TGI: 3.16 µM
[12]
  GI50: 1.86 µM
  TGI: 3.31 µM
[13]
  GI50: 1.65 µM
  TGI: 3.05 µM
[17]
  GI50: 1.74 µM
  TGI: 3.28 µM
[25]
  GI50: 1.43 µM
  TGI: 2.81 µM
[29]
  GI50: 1.7 µM
  TGI: 3.09 µM
[31]
  GI50: 1.72 µM
  TGI: 3.28 µM
[32]
  GI50: 1.88 µM
  TGI: 4.38 µM
[33]
  GI50: 1.83 µM
  TGI: 3.38 µM
[34]
  GI50: 1.67 µM
  TGI: 3.12 µM
[35]
  GI50: 1.85 µM
  TGI: 3.68 µM
[37]
  GI50: 1.69 µM
  TGI: 3.21 µM
[38]
  GI50: 1.83 µM
  TGI: 3.46 µM
[39]
  GI50: 1.67 µM
  TGI: 3.11 µM
[41]
  GI50: 1.53 µM
  TGI: 2.93 µM
[45]
  GI50: 1.69 µM
  TGI: 3.22 µM
[46]
  GI50: 1.68 µM
  TGI: 3.1 µM
[49]
  GI50: 1.76 µM
  TGI: 3.18 µM
[50]
  GI50: 1.73 µM
  TGI: 3.21 µM

## C#Cc1nc(C2=C(C)C(OC(C)=O)/C(=N/OC(C)=O)C2)cs1 (stereo unspecified)
[1]
  GI50: 1.85 µM
  TGI: 4.69 µM
[2]
  GI50: 0.429 µM
  TGI: 0.937 µM
[3]
  GI50: 13.3 µM
  TGI: 30.4 µM
[4]
  GI50: 19.5 µM
  TGI: 56.1 µM
[5]
  GI50: 0.188 µM
  TGI: 0.478 µM
[6]
  GI50: 4.98 µM
  TGI: > 21.3 µM
[7]
  GI50: > 28.5 µM
  TGI: > 100 µM
[8]
  GI50: 17.6 µM
  TGI: 62.8 µM
[9]
  GI50: 13.5 µM
  TGI: 30.4 µM
[10]
  GI50: 1.73 µM
  TGI: 3.24 µM
[11]
  GI50: 23.2 µM
  TGI: > 60.9 µM
[12]
  GI50: 11.5 µM
  TGI: > 70.3 µM
[13]
  GI50: 7.36 µM
  TGI: > 41.9 µM
[14]
  GI50: 1.26 µM
  TGI: 4.86 µM
[15]
  GI50: 5.65 µM
  TGI: 13 µM
[16]
  GI50: 0.745 µM
  TGI: 2.09 µM
[17]
  GI50: 4.66 µM
  TGI: > 42.4 µM
[18]
  GI50: 0.228 µM
  TGI: 0.649 µM
[19]
  GI50: 7.49 µM
  TGI: 30.4 µM
[20]
  GI50: 20.1 µM
  TGI: > 55.7 µM
[21]
  GI50: 6.16 µM
  TGI: 20.6 µM
[22]
  GI50: 6.65 µM
  TGI: 22.1 µM
[23]
  GI50: 9.78 µM
  TGI: 45.7 µM
[24]
  GI50: 4.58 µM
  TGI: > 26.9 µM
[25]
  TGI: > 24.2 µM
[26]
  GI50: > 100 µM
  TGI: > 100 µM
[27]
  GI50: 8.7 µM
  TGI: > 25.9 µM
[28]
  GI50: 0.0198 µM
  TGI: 0.0453 µM
[29]
  GI50: 0.831 µM
  TGI: 7.17 µM
[30]
  GI50: 9.24 µM
  TGI: > 23.6 µM
[31]
  GI50: 13.7 µM
  TGI: 29.4 µM
[32]
  GI50: 0.312 µM
  TGI: 1.17 µM
[33]
  GI50: 2.27 µM
  TGI: 6.67 µM
[34]
  GI50: 4.66 µM
  TGI: 11.7 µM
[35]
  GI50: 27.6 µM
  TGI: > 69.7 µM
[36]
  GI50: > 59.5 µM
  TGI: > 100 µM
[37]
  GI50: 1.81 µM
  TGI: 4.86 µM
[38]
  GI50: 10.1 µM
  TGI: 25.4 µM
[39]
  GI50: 47.4 µM
  TGI: > 100 µM
[40]
  GI50: 2.62 µM
  TGI: 6.03 µM
[41]
  GI50: 0.164 µM
  TGI: 0.299 µM
[42]
  GI50: 6.21 µM
  TGI: 23.8 µM
[43]
  GI50: 1.83 µM
  TGI: 3.33 µM
[44]
  GI50: 6.75 µM
  TGI: > 76.6 µM
[45]
  GI50: 4.62 µM
  TGI: > 20.6 µM
[46]
  GI50: 28.3 µM
  TGI: 56.9 µM
[47]
  GI50: 0.587 µM
  TGI: 1.32 µM
[48]
  GI50: 1.84 µM
  TGI: 3.67 µM
[49]
  GI50: 27.1 µM
  TGI: 50.4 µM
[50]
  GI50: 0.687 µM
  TGI: 1.87 µM
[51]
  GI50: 34.5 µM
  TGI: > 77.3 µM
[52]
  GI50: 5.39 µM
  TGI: > 100 µM
[53]
  GI50: 21.3 µM
  TGI: > 80 µM
[54]
  GI50: 11.8 µM
  TGI: 53.5 µM
[55]
  GI50: 2.7 µM
  TGI: 7.6 µM
[56]
  GI50: 17.1 µM
  TGI: 39 µM
[57]
  GI50: 9.99 µM
  TGI: 41.6 µM
[58]
  GI50: 12 µM
  TGI: > 61.4 µM
